According to PMC9532478, “A Novel CTLA-4 affinity peptide for cancer immunotherapy by increasing the integrin αvβ3 targeting” (Discover. Oncology, 2022):
Ends that are not written are not given here.

T1: hCTLA-4 protein (Homo sapiens, UniProt P16410)
T1 sequence (P16410 36-223): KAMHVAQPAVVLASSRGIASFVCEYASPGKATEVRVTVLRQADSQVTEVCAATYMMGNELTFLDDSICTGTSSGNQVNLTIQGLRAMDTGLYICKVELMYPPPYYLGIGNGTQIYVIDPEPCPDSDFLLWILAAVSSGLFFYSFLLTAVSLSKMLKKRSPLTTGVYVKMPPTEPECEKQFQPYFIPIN

T2: hCTLA-4 protein (human, UniProt P16410 36-161)
T2 construct: human CTLA-4 protein, soluble recombinant protein; The MST methods speak of a 'Red-NHS647 dye-labelled protein' without naming it; also called human CTLA-4 protein
T2 sequence (looked up): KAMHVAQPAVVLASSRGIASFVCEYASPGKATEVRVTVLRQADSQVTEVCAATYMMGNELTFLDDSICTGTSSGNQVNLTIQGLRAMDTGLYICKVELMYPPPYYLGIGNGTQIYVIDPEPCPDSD


Key:
CT26 tumour = experiment: CT26 tumour-bearing mice, peritumoral LC4; assay type: in vivo
Procedure: BALB/c mice were subcutaneously injected with 2 × 10^5 syngeneic CT26 cells to establish colorectal cancer xenograft model. The mice were divided into control group, LC4 (1 mg / kg) group and LC4 (4 mg / kg) group when the tumor grew to 40–80 mm.^3, peritumoral administration for 14 days. Statistical graph of A tumor volumes and B body weight of LC4 (1 mg / kg) group, LC4 (4 mg / kg) group and control group. Data are expressed as the mean ± SD (n = 5) and statistical significance between groups was determined by Student’s t test: *p < 0.05, ***p < 0.001
Fig. 6 The LC4 activation on T cells was determined in vivo. […] Data are expressed as the mean ± SD (n = 5) and statistical significance between groups was determined by Student’s t test: *p < 0.05, **p < 0.01, ***p < 0.001, ****p < 0.0001; ns = no significance TEXT PRINTED IN THE PICTURE: (A) LC4: Tumor CD3^+CD8^+(%): 6.86 (1mg/kg); Tumor CD3^+CD8^+(%): 19.3 (4mg/kg) | (B) LC4: Spleen CD8^+IFN-γ^+(%): 42.9 (1mg/kg); Spleen CD8^+IFN-γ^+(%): 42.5 (4mg/kg) | (C) LC4: Spleen CD4^+IFN-γ^+(%): 15.6 (1mg/kg); Spleen CD4^+IFN-γ^+(%): 14.2 (4mg/kg) | (D) LC4: DLN CD8^+IFN-γ^+(%): 45.8 (1mg/kg); DLN CD8^+IFN-γ^+(%): 56 (4mg/kg) | (E) LC4: DLN CD4^+IFN-γ^+(%): 2.31 (1mg/kg); DLN CD4^+IFN-γ^+(%): 2.83 (4mg/kg) DOUBTS OF THE COPYIST ABOUT THIS PICTURE: The gate numbers in the flow cytometry plots are printed without a measure or unit. […]

hCTLA-4 protein [1] = target: T1, hCTLA-4 protein; experiment: MST affinity of CTLA-4 binding peptides to hCTLA-4 protein; details: Monolith NT.115, Red-NHS647 dye-labelled protein, peptides from 400 μmol/L, 16 twofold dilutions, room temperature 5 min
Procedure: The CTLA-4 binding peptides were first diluted to 400 μmol/L with MST buffer, and twofold serial dilutions were carried out to obtain 16 concentration gradients subsequently. Equal Red-NHS647 dye-labelled protein and peptide volumes were incubated at room temperature for 5 min, the mixture was loaded onto standard capillaries (NanoTemper Technologies GmhH), and immediately placed in an MST instrument for detection. The dissociation constant (Kd) was determined using the NanoTemper analysis software MO. Affinity Analysis v2.2.4.

hCTLA-4 protein [2] = target: T2, hCTLA-4 protein; experiment: MST; Monolith NT.115; peptides first diluted to 400 μmol/L in MST buffer, 16 twofold dilutions; equal volumes of Red-NHS647 dye-labelled protein and peptide, room temperature 5 min, standard capillaries; details: both partners purified

Molecule | Kd (hCTLA-4 protein [1]) | Kd (hCTLA-4 protein [2]) | further results
WGHSHFSHWKGR [LC4] | – | – | effect on weight of mice (in words) (CT26 tumour; 1 mg/kg/day or 4 mg/kg/day, peritumoral, 14 days, n = 5): no significant effect on the weight of mice; pathological changes in heart, liver, lung, kidney (H&E staining, in words) (CT26 tumour; mouse, in vivo): No obvious pathological changes
HHLRIPYALDQT [LC2] | > 200 µM | – | –
ASANDNRLRYTY [LC6] | > 200 µM | – | –
RWKDTAYALTNN [LC1] | > 200 µM | – | –
SHRWQVWSRDRA [LC5] | > 200 µM | – | –
RHHSSNPRDTAP (12-mer selected from the Ph.D.-12 phage display peptide library on hCTLA-4; source: synthetic peptide (solid phase Fmoc synthesis, RP-HPLC)) [LC8] | – | 8.82 ± 0.69 µM | –
SWHWHTHVRHQM (12-mer selected from the Ph.D.-12 phage display peptide library on hCTLA-4; source: synthetic peptide (solid phase Fmoc synthesis, RP-HPLC)) [LC3] | – | 0.04 ± 0.01 µM | –
WGHSHFSHWKGR (12-mer selected from the Ph.D.-12 phage display peptide library on hCTLA-4; also called LC4 peptide; source: synthetic peptide (solid phase Fmoc synthesis, RP-HPLC)) [LC4] | – | 6.86 ± 2.63 µM | –
LDRPSSLAHLAS (12-mer selected from the Ph.D.-12 phage display peptide library on hCTLA-4; source: synthetic peptide (solid phase Fmoc synthesis, RP-HPLC)) [LC7] | – | 2.14 ± 0.69 µM | –
